Literature values in US7019016B2, “NMDA NR2B antagonists for treatment” (Pfizer Inc, priority 2000, dated 2006).

What was measured:
[1] = animal models of pain perception
[2] = target: NMDA receptors comprised of NR1/NR2B subunits (Homo sapiens, UniProt Q05586+Q13224); details: NR1/NR2B subunits compared to NR1/NR2A, NR2C, or NR2D subunits
Sequence of NMDA receptors comprised of NR1/NR2B subunits (Q13224 27-1484, other chains not shown): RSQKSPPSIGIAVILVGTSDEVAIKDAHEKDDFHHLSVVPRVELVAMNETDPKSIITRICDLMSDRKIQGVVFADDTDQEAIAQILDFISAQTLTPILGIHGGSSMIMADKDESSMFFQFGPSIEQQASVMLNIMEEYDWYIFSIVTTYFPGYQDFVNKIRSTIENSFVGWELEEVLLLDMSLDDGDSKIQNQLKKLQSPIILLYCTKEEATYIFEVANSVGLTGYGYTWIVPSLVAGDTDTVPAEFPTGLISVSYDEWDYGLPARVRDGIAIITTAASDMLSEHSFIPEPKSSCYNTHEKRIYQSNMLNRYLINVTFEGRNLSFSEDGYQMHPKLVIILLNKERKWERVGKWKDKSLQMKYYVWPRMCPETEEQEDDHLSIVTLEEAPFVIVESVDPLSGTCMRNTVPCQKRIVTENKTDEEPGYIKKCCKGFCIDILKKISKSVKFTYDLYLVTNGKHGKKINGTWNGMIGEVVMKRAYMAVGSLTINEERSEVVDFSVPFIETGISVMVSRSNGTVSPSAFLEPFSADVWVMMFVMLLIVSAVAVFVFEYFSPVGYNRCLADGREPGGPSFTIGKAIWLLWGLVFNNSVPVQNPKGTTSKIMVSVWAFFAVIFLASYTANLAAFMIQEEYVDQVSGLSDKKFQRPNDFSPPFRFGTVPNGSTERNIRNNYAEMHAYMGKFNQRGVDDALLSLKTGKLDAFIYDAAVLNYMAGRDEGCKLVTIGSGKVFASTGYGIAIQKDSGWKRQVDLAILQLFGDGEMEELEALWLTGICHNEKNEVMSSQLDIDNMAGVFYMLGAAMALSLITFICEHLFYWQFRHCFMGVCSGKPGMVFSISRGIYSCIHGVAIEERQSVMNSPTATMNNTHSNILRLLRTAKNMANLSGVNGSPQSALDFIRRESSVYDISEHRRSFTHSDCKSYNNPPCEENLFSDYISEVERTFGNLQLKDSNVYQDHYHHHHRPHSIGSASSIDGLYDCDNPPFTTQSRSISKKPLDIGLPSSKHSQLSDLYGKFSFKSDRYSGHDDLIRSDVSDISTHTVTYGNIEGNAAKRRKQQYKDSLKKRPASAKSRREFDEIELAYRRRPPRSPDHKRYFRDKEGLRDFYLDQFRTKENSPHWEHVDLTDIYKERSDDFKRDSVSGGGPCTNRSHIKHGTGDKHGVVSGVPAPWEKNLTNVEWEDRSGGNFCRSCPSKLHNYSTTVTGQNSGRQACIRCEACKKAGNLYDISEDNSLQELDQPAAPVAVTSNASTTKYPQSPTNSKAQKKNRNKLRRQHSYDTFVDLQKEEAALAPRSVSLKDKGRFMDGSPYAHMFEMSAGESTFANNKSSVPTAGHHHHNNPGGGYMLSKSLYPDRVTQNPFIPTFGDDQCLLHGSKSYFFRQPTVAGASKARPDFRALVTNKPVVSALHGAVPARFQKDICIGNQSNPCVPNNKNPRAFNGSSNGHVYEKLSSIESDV

- blockade of ion current through NMDA receptors [2]: more potent and efficacious
Compound: CC(C(O)c1ccc(O)cc1)N1CCC(Cc2ccccc2)CC1 (centres unmarked) [ifenprodil]
- analgesic activity [1]: significant analgesic activity
